Read-outs that look alike come from different tables or passages of the source.
Experiments:
WbDHFR [1] = molecular target: T1, WbDHFR (Wuchereria bancrofti, UniProt J9F199); format: biochemical
Procedure: Compounds (-)-epicatechin, (-)-epicatechin gallate, and vitexin were tested as inhibitors of WbDHFR and BmDHFR. The compounds (-)-epicatechin and (-)-epicatechin gallate were synthesized as described previously. […] Disappearance of DHF and NADPH was observed by measuring absorbance at 340 nm to measure the DHFR activity in a SpectraMax M3 microplate reader. […] All experiments were completed in triplicate.

WbDHFR [2] = molecular target: T1, WbDHFR
Procedure: To determine the mechanism of inhibition, Dixon plots were created and analyzed for the inhibitors against WbDHFR. We determined WbDHFR activity as described above at DHF concentrations of 2 μM, 4 μM, and 8 μM in 200 μL reaction volumes. WbDHFR (6 nM) and 100 μM NADPH cofactor were included in 1 X MTEN buffer at pH 6.0. […] The reciprocal initial velocities were plotted against inhibitor concentration for each substrate in Excel to create the Dixon plots. Substrate trend-lines were extended to calculate the intersection point,–KI. Each Dixon plot was generated in triplicate.
A linear equation was fitted to the data at each substrate concentration. […] The KI values for BmDHFR in Table 1 were obtained using the Cheng-Prusoff Equation [18]. […] Inhibitor structures are shown in supporting information (S2 Fig).

[3] = read-out: IC50 WbDHFR, pH 6.0, 100 μM NADPH, 50 μM DHF, 12.1 nM WbDHFR, average of triplicates ± S.D.
[4] = read-out: IC50 against WbDHFR Average, average of three trials
[5] = read-out: IC50 against WbDHFR Trial 1, individual trial
[6] = read-out: IC50 against WbDHFR Trial 2, individual trial
[7] = read-out: IC50 against WbDHFR Trial 3, individual trial
[8] = read-out: KI Trial 1, WbDHFR, individual trial, Dixon plot
[9] = read-out: KI Trial 2, WbDHFR, individual trial, Dixon plot
[10] = read-out: KI Trial 3, WbDHFR, individual trial, Dixon plot
[11] = read-out: KI WbDHFR, from Dixon plots, 6 nM WbDHFR, 100 μM NADPH, DHF 2, 4, 8 μM, pH 6.0, ± S.D.
[12] = read-out: Average KI, WbDHFR, average of three trials, Dixon plots

| Compound | IC50 (WbDHFR [1]; [3]) | IC50 (WbDHFR [1]; [4]) | IC50 (WbDHFR [1]; [5]) | IC50 (WbDHFR [1]; [6]) | IC50 (WbDHFR [1]; [7]) | Ki (WbDHFR [2]; [8]) | Ki (WbDHFR [2]; [9]) | Ki (WbDHFR [2]; [10]) | Ki (WbDHFR [2]; read-out: KI WbDHFR, as stated in text (abstract, discussion)) | Ki (WbDHFR [2]; [11]) | Ki (WbDHFR [2]; [12]) |
| --- | --- | --- | --- | --- | --- | --- | --- | --- | --- | --- | --- |
| Nc1nc(N)c2nc(CNc3ccc(C(=O)N[C@@H](CCC(=O)O)C(=O)O)cc3)cnc2n1 [Aminopterin, aminopterin] | 0.014 ± 0.005 µM | 0.0144 µM | 0.0203 µM | 0.00996 µM | 0.013 µM | 0.0026 µM | 0.00219 µM | 0.0016 µM | 0.0021 ± 0.0005 µM | 0.0021 ± 0.0005 µM |  |
| CCc1nc(N)nc(N)c1-c1ccc(Cl)cc1 [Pyrimethamine, pyrimethamine] | 454 ± 37 µM | 454 µM | 449 µM | 494 µM | 420 µM | 20.3 µM | 15.9 µM | 8.89 µM |  | 15 ± 6 µM | 15 µM |
| Cc1nc2ccc(CN(C)c3ccc(C(=O)N[C@@H](CCC(=O)O)C(=O)O)s3)cc2c(=O)[nH]1 [Raltitrexed, raltitrexed] | 18 ± 10 µM | 17.8 µM | 28.6 µM | 11.7 µM | 13 µM | 0.536 µM | 1.09 µM | 3.32 µM |  |  | 1.6 µM |
| Oc1cc(O)c2c(c1)O[C@H](c1ccc(O)c(O)c1)[C@H](O)C2 [(-)-Epicatechin, (-)-epicatechin] | > 2500 µM |  |  |  |  |  |  |  |  |  |  |
| O=c1cc(-c2ccc(O)cc2)oc2c([C@@H]3O[C@H](CO)[C@@H](O)[C@H](O)[C@H]3O)c(O)cc(O)c12 [Vitexin, vitexin] | > 240 µM |  |  |  |  |  |  |  |  |  |  |

Reference: paper PMC5963757, “Expression, purification, and inhibition profile of dihydrofolate reductase from the filarial nematode Wuchereria bancrofti” (PLoS ONE, 2018)
